Results as given in patent publication US10150737B2, “Compounds for controlling arthropods” (priority 2013, dated 2018).

Legend:
Lucilia cuprina = Lucilia cuprina test; assay type: in vivo; conditions: application rate 100 ppm; L1 larvae; after 2 days
Experimental: (§1) Solvent: dimethyl sulphoxide
(§2) To produce an appropriate active ingredient formulation, 10 mg of active ingredient are mixed with 0.5 ml of dimethyl sulphoxide, and the concentrate is diluted with water to the desired concentration.
About 20 L1 larvae of the Australian sheep blowfly (Lucilia cuprina) are transferred into a test vessel containing minced horsemeat and the active ingredient preparation of the desired concentration.
After 2 days, the kill in % is determined. 100% means that all the larvae have been killed; 0% means that none of the larvae have been killed.

[1] = logP determination by HPLC on a reversed-phase column (C18); assay type: physicochemical; conditions: for logP^a): HPLC-MS method a); for log P: HPLC-MS
Musca domestica = Musca domestica test; assay type: in vivo; conditions: adult houseflies, after 2 days
Experimental: as §1, §2
Vessels containing a sponge treated with sugar solution and the active ingredient formulation of the desired concentration are populated with 10 adult houseflies (Musca domestica).
After 2 days, the kill in % is determined. 100% means that all of the flies have been killed; 0% means that none of the flies have been killed.

Phaedon cochleariae = Phaedon cochleariae - spray test; assay type: in vivo; conditions: larvae on Chinese cabbage leaf discs, after 7 days
Method in brief: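 Chinese cabbage leaf discs sprayed with compound formulated in acetone/DMF and water containing 1000 ppm emulsifier; once dry, infested with mustard beetle larvae. Efficacy (% larvae killed) scored after 7 days.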

Boophilus microplus = Boophilus microplus - injection test; assay type: in vivo; conditions: application rate 20 μg/animal; injection into engorged adult female ticks; after 7 days
Method in brief: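 Active ingredient in DMSO, 1 μl injected into the abdomen of 5 engorged adult female ticks, then held in a climate-controlled room. Efficacy scored after 7 days from laying of fertile eggs, with non-fertile-looking eggs kept about 42 days for larval hatch; 100% means no fertile eggs.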

Ctenocephalides felis = Ctenocephalides felis - oral test; assay type: in vivo; conditions: application rate 100 ppm in citrated cattle blood; after 2 days
Method in brief: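 Compound in DMSO diluted into citrated cattle blood, fed through a parafilm membrane to about 20 unfed adult cat fleas. Kill in % scored after 2 days (100% = all dead).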

Spodoptera frugiperda = Spodoptera frugiperda - spray test; assay type: in vivo; conditions: caterpillars on maize leaf discs, after 7 days
Experimental: (§3) Solvent: 78.0 parts by weight of acetone and 1.5 parts by weight of dimethylformamide
(§4) Emulsifier: alkylaryl polyglycol ether
(§5) To produce an appropriate active ingredient formulation, 1 part by weight of active ingredient is dissolved using the specified parts by weight of solvent and made up with water containing an emulsifier concentration of 1000 ppm until the desired concentration is attained. To produce further test concentrations, the preparation is diluted with emulsifier-containing water.
Leaf discs of maize (Zea mays) are sprayed with an active ingredient formulation of the desired concentration and, after drying, populated with caterpillars of the armyworm (Spodoptera frugiperda).
After 7 days, efficacy in % is determined. 100% means that all the caterpillars have been killed; 0% means that no caterpillars have been killed.

Tetranychus urticae = Tetranychus urticae - spray test, OP-resistant; assay type: in vivo; conditions: bean leaf discs, after 6 days
Experimental: as §3, §4, §5
Discs of bean leaves (Phaseolus vulgaris) infested by all stages of the greenhouse red spider mite (Tetranychus urticae) are sprayed with an active ingredient formulation of the desired concentration.
After 6 days, efficacy in % is determined. 100% means that all the spider mites have been killed; 0% means that none of the spider mites have been killed.

[2] = reversed-phase column (C18), Table I-T3

SMILES | efficacy (kill) (Lucilia cuprina) | logP^a) [1] | logP^a) [1, 2] | efficacy (kill) (Musca domestica; application rate 100 ppm) | efficacy (Phaedon cochleariae; application rate 100 g/ha) | efficacy (laying of fertile eggs) (Boophilus microplus) | efficacy (kill) (Ctenocephalides felis) | efficacy (Phaedon cochleariae; application rate 500 g/ha) | efficacy (Spodoptera frugiperda; application rate 500 g/ha) | efficacy (Tetranychus urticae; application rate 500 g/ha) | logP^a) ([1]; reversed-phase column (C18)) | log P [1, 2] | efficacy (Spodoptera frugiperda; application rate 100 g/ha) | efficacy (Tetranychus urticae; application rate 100 g/ha) | efficacy (kill) (Musca domestica; application rate 4 ppm)
Cc1cc(C(F)(C(F)(F)F)C(F)(F)F)cc(C)c1-n1cc(-c2ccc(Cl)c(C(=O)NC3(C(F)(F)F)CC3)c2)cn1 [I-T3-5] | 100% | 4.6 | 4.6 | 100% | 100% | 100% | 100% | – | – | – | – | – | – | – | –
N#CC1(NC(=O)c2cc(-c3cnn(-c4ccc(C(F)(C(F)(F)F)C(F)(F)F)cc4OC(F)(F)F)c3)ccc2Cl)CC1 [I-T3-34] | 100% | 4.6 | 4.6 | 100% | – | 100% | 100% | 100% | 100% | 100% | – | – | – | – | –
N#CC1(NC(=O)c2cc(-c3cnn(-c4ccc(OC(F)(F)F)cc4Cl)c3)ccc2Cl)CC1 [I-T3-89] | 100% | 3.5 | 3.5 | 100% | – | 100% | 100% | 100% | 100% | 90% | – | – | – | – | –
Cc1cc(C(F)(C(F)(F)F)C(F)(F)F)cc(C)c1-n1cc(-c2cnc(C3CC3)c(C(=O)NC3(C#N)CC3)c2)cn1 [I-T3-139] | 100% | – | – | 90% | 100% | 100% | 100% | – | – | – | 4.1 | 4.1 | 100% | 100% | –
Cc1cc(C(F)(C(F)(F)F)C(F)(F)F)cc(C)c1-n1cc(-c2ccc(Cl)c(C(=O)NC3CSC3)c2)cn1 [I-T3-4] | 100% | 4.7 | 4.7 | 100% | 100% | 100% | 100% | – | – | – | – | – | 100% | 100% | –
N#CC1(NC(=O)c2cc(-c3cnn(-c4ncc(C(F)(F)F)cc4C(F)(F)F)c3)ccc2Cl)CC1 [I-T3-149] | 100% | – | – | 100% | 100% | 100% | 100% | – | – | – | 3.5 | 3.5 | – | – | –
Cc1cc(C(F)(C(F)(F)F)C(F)(F)F)cc(C)c1-n1cc(-c2ccc(Cl)c(C(=O)NC3(C#N)CC3)c2F)cn1 [I-T3-65] | 100% | 4.4 | 4.3 | 100% | – | 100% | 100% | 100% | 100% | 90% | – | – | – | – | –
O=C(NC1CC1)c1cc(-c2cnn(-c3ncc(C(F)(F)F)cc3C(F)(F)F)c2)ccc1Cl [I-T3-150] | 100% | – | – | 100% | – | 100% | 100% | – | – | – | 3.6 | 3.6 | – | – | –
CCc1cc(C(F)(C(F)(F)F)C(F)(F)F)ccc1-n1cc(-c2cncc(C(=O)NC3CC3)c2)cn1 [I-T3-79] | 80% | 3.3 | 3.3 | 80% | – | 100% | 95% | 100% | 100% | – | – | – | – | – | –
CCc1cc(C(F)(C(F)(F)F)C(F)(F)F)cc(C)c1-n1cc(-c2ccc(Cl)c(C(=O)NC3(C#N)CC3)c2F)cn1 [I-T3-66] | 100% | 4.6 | 4.6 | 80% | – | 100% | 100% | 100% | 100% | – | – | – | – | – | –
COc1ncc(-c2cnn(-c3c(C)cc(C(F)(C(F)(F)F)C(F)(F)F)cc3C)c2)cc1C(=O)N(C)C1CC1 [I-T3-144] | 100% | – | – | 100% | 100% | 100% | 90% | – | – | – | 4.4 | 4.4 | – | – | –
Cc1cc(C(F)(C(F)(F)F)C(F)(F)F)cc(C)c1-n1cc(-c2ccc(Cl)c(C(=O)NCC(F)(F)F)c2)cn1 [I-T3-2] | 100% | 4.7 | 4.7 | 100% | 100% | 100% | 100% | – | – | – | – | – | 100% | 100% | –
O=C(NC1CC1)c1c(Cl)ccc(-c2cnn(-c3c(Cl)cc(C(F)(C(F)(F)F)C(F)(F)F)cc3Cl)c2)c1F [I-T3-73] | 100% | 4.5 | 4.5 | 100% | – | 100% | 100% | 100% | 100% | – | – | – | – | 100% | –
O=C(NC1CC1)c1cc(-c2cnn(-c3ccc(C(F)(C(F)(F)F)C(F)(F)F)cc3OC(F)(F)F)c2)ccc1Cl [I-T3-35] | 100% | 4.7 | 4.7 | – | – | 100% | 100% | 100% | – | – | – | – | 83% | – | 80%
N#CC1(NC(=O)c2cc(-c3cnn(-c4ncc(C(F)(C(F)(F)F)C(F)(F)F)cc4Cl)c3)ccc2Cl)CC1 [I-T3-151] | 100% | – | – | 100% | 100% | 100% | 100% | – | – | – | 4.0 | 4.0 | 100% | 90% | –
O=C(NCC(F)(F)F)c1cc(-c2cnn(-c3c(Cl)cc(C(F)(C(F)(F)F)C(F)(F)F)cc3C(F)(F)F)c2)ccc1Cl [I-T3-58] | 100% | 4.7 | 4.7 | 100% | 100% | 100% | 100% | – | – | – | – | – | 100% | 100% | –
CCc1cc(C(F)(C(F)(F)F)C(F)(F)F)cc(C)c1-n1cc(-c2ccc(Cl)c(C(=O)NC3CC3)c2F)cn1 [I-T3-68] | 100% | 4.6 | 4.8 | 80% | – | 100% | 100% | 100% | 100% | – | – | – | – | – | –
N#CC1(NC(=O)c2cc(-c3cnn(-c4c(F)cc(C(F)(C(F)(F)F)C(F)(F)F)cc4F)c3)ccc2Cl)CC1 [I-T3-62] | 100% | 3.9 | 3.9 | 100% | 100% | 100% | 100% | – | – | – | – | – | 100% | 100% | –
